Tests used:
[1] = system: Zucker rats; assay: In vivo Zucker rat glucose study; conditions: 30 mg/kg ip, glucose 1.5 g/kg oral gavage, 30 and 270 minutes after glucose
Description: Zucker rats and corresponding lean rats were supplied by Harlan. Rats were fed a normal diet, ad libitum, and kept on a 12 hour light/dark cycle. Rats were housed 3 per cage. At 12 weeks of age, Zucker rats were administered Compound 102 at a concentration of 30 mg/kg (ip). Blood glucose level was measured 30 minutes after administration. Forty-five minutes after drug administration, animals were administered a glucose solution (1.5 g/kg) by oral gavage. Blood glucose level was measured every 30 minutes after gavage for 4.5 hours. There were 3 groups with 3 animals per group: 1) 3 Zucker leans (no drug; no glucose treatment); 2) Zucker vehicle treated group (glucose challenged); and 3) Zucker Compound 102 treatment (30 mg/kg); glucose challenged.

[2] = system: IRS-1; assay: IRS-1 phosphorylation in vivo (immunoprecipitation); conditions: mice, fat pads and livers removed ninety minutes after drug administration, FIGS. 2A, 2B
Description: (§1) The following studies were conducted to determine whether Compound 102 activated lyn kinase in vivo. This determination was conducted by measuring activation (phosphorylation) of downstream substrates of Lyn in mice treated with Compound 102. Referring to FIGS. 2A, 2B, and 3, mice were administered Compound 102 at the indicated dose. Ninety minutes after drug administration, fat pads and livers were removed. IRS-1 phosphorylation was measured by immunoprecipitation using an anti-phosphotyrosine antibody and probing with either IRS-1 or AKT antibody.

[3] = system: mouse model of hyperglycemia; assay: Oral glucose tolerance test; format: in vivo, mice
From the text: Type II diabetes is characterized by high blood glucose level in the presence of normal amounts of insulin. Animal models of type II diabetes involve administering a high level of glucose and measuring blood glucose level and the ability of the experimental animal to maintain glucose homeostasis over time. Several pharmacological structural classes can effectively regulate this hyperglycemic response including sulfonylureas, thiazoladinediones (PPARγ agonists; glitazones) or metformin (glucophage). These drug classes are also clinically approved for use in humans. In the current study, a mouse model of hyperglycemia has been established by administering high level of glucose to mice.
Glucose was formulated in water at a concentration of 150 mg/ml and dosed at a volume of 10 ml/kg to produce a dose of 1.5 g/kg. Glucose was measured using the Ascensia II Elite XL glucose monitor (Bayer). Glucose was measured by taking a small (2 mm) section off the tip of the tail, bleed onto glucose test strip. Data for each time point was analyzed by ANOVA and post-hoc Tukey's test. A p value of less then 0.05 was used to indicate statistical significance. Two studies were conducted with the following Compound 102.
In study 1, mice were dosed with Compound 102 and glucose as follows:
In study 2, mice were dosed with Compound 102 and glucose as follows.
Study 3 tested Compound 102 and was conducted as follows: […]

[4] = system: Db/Db mice; assay: In vivo Db/Db mouse study, obesity study; conditions: 28 days
Description: (§2) Db/Db and Db/lean mice were obtained from Harlan at 6 weeks of age. Mice were housed 3 per cage and fed ad libitum normal rodent chow. Mice were kept on a 12 hour light:dark cycle.
(§3) The study was initiated when mice reached an age of 8 weeks and their baseline blood glucose level was greater than 200 mg/dl. Compound 102 was formulated in PBS:2N HCl (99:1) at concentrations of 0.5, 1.5 and 5 mg/ml. Mice were dosed at volumes of 10 ml/kg to produce doses of 5, 15 and 50 mg/kg/dose. Mice were dosed twice per day at an 8 hour interval (8 am and 4 pm) during the light cycle.
Mice were administered vehicle or drug (i.e., Compound 102) (5, 15, and 50 mg/kg) twice per day (bid) for the 28 days. Mouse weight and food intake were monitored daily. Food intake is reported as food intake (grams) per mouse per 24 hour period.

[5] = system: Male CD1/ICR mice fed Western Diet; assay: Western Diet study (weight, food intake, fat pads); format: in vivo
Description: Male CD1/ICR mice were obtained from Harlan. The study was started when mice were 8 weeks of age. Prior to initiation of the study mice fasted for 24 hours. Mice were fed “Western Diet” that was designed to approximate the “typical” human diet of North America and Europe (Research Diets; New Brunswick, N.J.; Western Diet composition). The Western Diet contained greater than 5 times more fat than normal chow. [table] Mice were weighed daily beginning from the start of the 24 hour fasting period. Food intake was monitored continuously. Mice were bled by retroorbital eyebleed on days 7, 14, 21 and 28 after the initiation of the study. On day of REB, mice were dosed 1× with full dose 1 hour prior to bleed. Fat pads were dissected at the end of the study (day 31) weighed and frozen. The following fat pads were dissected: brown, inguinal, axial, mesenteric, renal, and epidydimal. Data were averaged and analyzed by ANOVA followed by a post-hoc Tukey's test with a p value of less then 0.05 indicating a statistical difference.

[6] = system: AKT; assay: AKT phosphorylation in vivo (immunoprecipitation); conditions: mice, fat pads and livers removed ninety minutes after drug administration, FIG. 3
Description: as §1

[7] = system: Db/Db Leptin Receptor deficient diabetes/metabolic syndrome animal model; assay: In vivo Db/Db mouse study, glucose study; conditions: Db/Db mice
Description: as §2, §3
For the acute blood glucose measurements, blood glucose level was measured after the animals received their first dose of Compound 102. Blood glucose level was measured two hours after this initial injection.
In this study, mice were dosed with Compound 102 IP, twice/day over the course of four weeks.

[8] = system: mice on western diet; assay: Leptin level in Western Diet treated animals (ELISA); format: in vivo; conditions: mice fed western diet, bled days 7, 14, 21, 28, dosed 1 hour prior to bleed
Description: Blood from mice that were on western diet (Compound 102) were analyzed for leptin level. Mice were bled by retroorbital eyebleed on days 7, 14, 21 and 28 after the initiation of the study. On day of REB, mice were dosed once with full dose 1 hour prior to bleed. Leptin level was determined by ELISA (R&D Systems) as per directions. Data are expressed as the average±SEM. Data were averaged and analyzed by ANOVA followed by a post-hoc Tukey's test with a p value of less then 0.05 indicating a statistical difference.

[9] = study 1, mice, single administration, 30 mg/kg
[10] = IP twice/day over four weeks, 5, 15, 50 mg/kg

Cc1cccc(Oc2cnc(=O)[nH]c2)c1 [Compound 102]
blood glucose level after oral glucose administration [1]: reduced blood glucose level | phosphorylation of IRS-1 [2]: increases | normal blood glucose level (pre-glucose loading) [3, 9]: significantly decreased | time after drug administration at which significance was lost [3, 9]: 90 min | blood glucose level produced by oral glucose administration ([3]; study 1, mice, single administration, 30 mg/kg, oral glucose 1.5 g/kg): significantly attenuated | effect on blood glucose level ([3]; study 2, mice, increased (repeated) dosing): more dramatic effect | weight-gain response ([4]; chronic administration, 5, 15, 50 mg/kg bid): significantly inhibited | defecation ([4]; chronic administration, bid): defecated normally | brown, axial, inguinal, renal and epididymal fat pad increases ([5]; fat pads dissected day 31): significantly reduced | weight gain (absolute weight and weight change from day 0) ([5]; highest dose tested 30 mg/kg/day): significantly reduced | phosphorylation of AKT [6]: increases | acute blood glucose response in dose groups ([7]; 15 mg/kg and 50 mg/kg dose groups, upon study initiation and on weekly blood glucose testing): acute dose response | animal weight gain [7, 10]: dose dependent effect | blood glucose level [7, 10]: dose dependent effect | blood glucose level following acute administration ([7]; measured two hours after first dose): reduce blood glucose level | blood leptin level [8]: reduced leptin level to those fed a normal diet

O=c1ncc(Oc2cccc(Cl)c2)c[nH]1 [Compound 105]
baseline blood glucose level ([3]; mice, single dose of 2 or 10 mg/kg): significantly depressed | blood glucose level at all time points after administration ([3]; mice, single dose of 2 or 10 mg/kg, P<0.05): significantly (P<0.05) reduced

CN(C)C(=N)N=C(N)N [metformin, reference compound]
blood glucose load ([3]; validation of the mouse model of hyperglycemia): effectively reduce
